Experimental data published in patent publication US20220009920A1 (GB005, Inc., priority 2020, published 2022).

Columns and labels:
[1] = target: T1, BTK (Homo sapiens, UniProt Q06187); experiment: Assay to determine activity against BTK; type: biochemical; details: 1 mM ATP, 2 nM BTK, 90 minutes at room temperature
T1 construct: purchased Cama
Experimental: Solutions of compounds (test or control) in DMSO were prepared at the desired concentrations, and serially diluted to 11 concentrations by 3-fold dilution in 384pp-plate using TECAN EVO200. 20 nL of stock were transferred to 384 plate using Echo550. DMSO was used as vehicle control.
(BTK was obtained from Cama; FLPeptide2 was obtained from PerkinElmer and Ibrutinib was obtained from Selleck.) 5 μL of ATP solution were added to each well, followed by addition of 15 μL of BTK solution to initiate the reaction. (Note the final volume of each well was 20 μL containing MgCl2 (10 mM), Brij-35 (0.01%), DTT (2 mM), BSA (0.05%), EGTA (1 mM), HEPE (pH7.5) (50 mM), FLPeptide (1.5 uM), ATP (1 mM) and BTK (2 nM).
The plates were incubated at room temperature for 90 minutes and then stopping buffer added (75 μL, containing 0.5 M EDTA) to terminate the reaction. Samples from each well were analyzed using EZ reader. The % remaining activity was calculated using read conversion ratio (CR) according to the equation: […]
XLFit (equation 201) was used to calculate IC50's by floating both bottom and top.

[2] = system: BTK in RAMOS B cells; experiment: Assay to determine BTK activity in RAMOS B cells (anti-IgM, FLIPR Calcium 6); type: cell-based; details: anti-IgM EC80, calcium readout
Experimental: On the day before assay, Ramos B cells were plated in plating medium (RPMI1640 medium containing 1% FBS and 1× pencillin-streptomycin). On the day of the assay, 2× dye solution was prepared following the manual of the FLIRP Calcium 6 Assay Kit: Dilute the dye with assay buffer (20 mM HEPES in IX HBSS, pH7.4); Add probenecid to the final concentration of 5 mM; vortex vigorously for 1-2 minutes. Cells were collected by centrifuging, and the pellet was re-suspended in plating medium. After counting, cells were re-suspended at a density of 3×10^6/ml in plating medium. Equal volume of 2× dye solution was added to the cell suspension. Cells were then plated at 20 μl/well into a 384-well poly-D-lysine coated plate. Plate was centrifuged at 1000 rpm for 3 minutes and then incubated at 37° C. for 2 hours followed by an additional 15-minute incubation at 25° C. Compounds were prepared at 3× concentration in dilution buffer (20 mM HEPES and 0.1% BSA in 1×HBSS, pH 7.4). Serially diluted compound was transferred from source plate to a 384-well compound plate by using an Echo 550 (Labcyte). 20 μl/well compound dilution buffer was added to the compound plate and mixed on plate shaker for 2 mins. 4× EC80 of Anti-IgM (Jackson ImmunoResearch) was prepared in dilution buffer and 20 μl/well was added to a new 384-well compound plate. After 60 mins of incubation at 25° C. in the dark; cell plate, compound plate containing 4×EC80 of anti-IgM and FLIPR tips were placed into FLIPR (Molecular Devices). 10 ul/well of 4×EC80 anti-IgM was transferred to the cell plate by FLIPR. Plates were read for 160 sec with 1 sec interval.

T1 sequence (Q06187 whole entry): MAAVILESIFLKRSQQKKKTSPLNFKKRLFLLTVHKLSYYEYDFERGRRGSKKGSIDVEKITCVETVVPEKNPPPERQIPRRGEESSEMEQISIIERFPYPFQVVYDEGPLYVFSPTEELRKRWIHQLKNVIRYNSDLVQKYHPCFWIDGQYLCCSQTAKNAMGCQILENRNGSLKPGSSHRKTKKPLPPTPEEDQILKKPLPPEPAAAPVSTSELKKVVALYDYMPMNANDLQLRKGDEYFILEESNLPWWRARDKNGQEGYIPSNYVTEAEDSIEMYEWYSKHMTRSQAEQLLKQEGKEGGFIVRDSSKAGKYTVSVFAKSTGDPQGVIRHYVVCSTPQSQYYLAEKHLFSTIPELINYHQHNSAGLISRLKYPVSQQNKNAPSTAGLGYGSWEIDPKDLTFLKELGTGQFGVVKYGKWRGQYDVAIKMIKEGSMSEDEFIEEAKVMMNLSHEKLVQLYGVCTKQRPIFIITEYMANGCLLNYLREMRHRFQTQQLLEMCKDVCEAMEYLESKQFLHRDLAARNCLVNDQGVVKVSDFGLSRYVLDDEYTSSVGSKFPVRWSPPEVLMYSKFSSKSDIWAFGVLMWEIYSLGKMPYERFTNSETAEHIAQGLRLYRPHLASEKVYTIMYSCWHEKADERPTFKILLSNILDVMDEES

IC50 [1] [nM] | IC50 ([2]; Homo sapiens, Ramos) [nM] | IC50 [2] [nM] | SMILES
10 to 100 | 10 to 100 | – | C=CC(=O)Nc1cccc(-c2c(F)cc(C(N)=O)c3[nH]c4c(c23)CCCCC4)c1 [Compound 5-3, 1-(3-acrylamidophenyl)-2-fluoro-5,6,7,8,9,10-hexahydrocyclohepta[b]indole-4-carboxamide]
10 to 100 | 10 to 100 | – | CC#CC(=O)N[C@@H]1C=C(c2c(F)cc(C(N)=O)c3[nH]c4c(c23)CCCCC4)CCC1 [Compound 5-9, 1-[(3S)-3-(but-2-ynoylamino)cyclohexen-1-yl]-2-fluoro-5,6,7,8,9,10-hexahydrocyclohepta[b]indole-4-carboxamide]
10 to 100 | 10 to 100 | – | C=CC(=O)N1CCC=C(c2ccc(C(N)=O)c3[nH]c4c(c23)CC2(CC4)OCCO2)C1 [Compound 6-1, 4′-(1-prop-2-enoyl-3,6-dihydro-2H-pyridin-5-yl)spiro[1,3-dioxolane-2,6′-5,7,8,9-tetrahydrocarbazole]-1′-carboxamide]
10 to 100 | 10 to 100 | – | C=CC(=O)N1CCC=C(c2ccc(C(N)=O)c3[nH]c4c(c23)CC2(CC4)CC2)C1 [Compound 7-1, 4-(1-prop-2-enoyl-3,6-dihydro-2H-pyridin-5-yl)spiro[5,7,8,9-tetrahydro-carbazole-6,1′-cyclopropane]-1-carboxamide]
≥ 100 | ≥ 100 | – | C=CC(=O)N1CCC=C(c2ccc(C(N)=O)c3[nH]c4c(c23)CC2(CCC2)CC4)C1 [Compound 7-3, 5-(1-acryloyl-1,2,5,6-tetrahydropyridin-3-yl)-1,2,4,9-tetrahydrospiro[carbazole-3,1′-cyclobutane]-8-carboxamide]
≥ 100 | ≥ 100 | – | C=CC(=O)N1CCc2c(cccc2-c2ccc(C(N)=O)c3[nH]c4c(c23)CC2(CCC2)CC4)C1 [Compound 7-4, 5-(2-acryloyl-1,2,3,4-tetrahydroisoquinolin-5-yl)-1,2,4,9-tetrahydrospiro[carbazole-3,1′-cyclobutane]-8-carboxamide]
10 to 100 | 10 to 100 | – | C=CC(=O)N1CCC=C(c2ccc(C(N)=O)c3[nH]c4c(c23)CC2(CCCC2)CC4)C1 [Compound 7-5, 5-(1-acryloyl-1,2,5,6-tetrahydropyridin-3-yl)-1,2,4,9-tetrahydrospiro[carbazole-3,1′-cyclopentane]-8-carboxamide]
≥ 100 | ≥ 100 | – | C=CC(=O)N1CCC=C(c2ccc(C(N)=O)c3[nH]c4c(c23)CC2(CCCO2)CC4)C1 (stereo not drawn) [Compound 7-6, 5-(1-acryloyl-1,2,5,6-tetrahydropyridin-3-yl)-1,2,4,4′,5′,9-hexahydro-3′H-spiro[carbazole-3,2′-furan]-8-carboxamide]
< 10 | < 10 | – | C=CC(=O)N1CCC=C(c2c(F)cc(C(N)=O)c3[nH]c4c(c23)CC2(CC4)CC2)C1 [Compound 7-11, 5-(1-acryloyl-1,2,5,6-tetrahydropyridin-3-yl)-6-fluoro-1,2,4,9-tetrahydrospiro[carbazole-3,1′-cyclopropane]-8-carboxamide]
< 10 | – | 10 to 100 | C=CC(=O)N1CCc2c(cccc2-c2c(F)cc(C(N)=O)c3[nH]c4c(c23)CC2(CC4)CC2)C1 [Compound 7-12, 5-(2-acryloyl-1,2,3,4-tetrahydroisoquinolin-5-yl)-6-fluoro-1,2,4,9-tetrahydrospiro[carbazole-3,1′-cyclopropane]-8-carboxamide]
10 to 100 | ≥ 100 | – | C=CC(=O)N1CCc2c(cccc2-c2c(F)cc(C(N)=O)c3[nH]c4c(c23)CC2(CCC2)CC4)C1 [Compound 7-13, 5-(2-acryloyl-1,2,3,4-tetrahydroisoquinolin-5-yl)-6-fluoro-1,2,4,9-tetrahydrospiro[carbazole-3,1′-cyclobutane]-8-carboxamide]
≥ 100 | ≥ 100 | – | C=CC(=O)N1CCc2c(cccc2-c2c(F)cc(C(N)=O)c3[nH]c4c(c23)CC2(CCCC2)CC4)C1 [Compound 7-14, 5-(2-acryloyl-1,2,3,4-tetrahydroisoquinolin-5-yl)-6-fluoro-1,2,4,9-tetrahydrospiro[carbazole-3,1′-cyclopentane]-8-carboxamide]
10 to 100 | – | ≥ 100 | C=CC(=O)N1CCc2c(cccc2-c2c(F)cc(C(N)=O)c3[nH]c4c(c23)CC2(CCCO2)CC4)C1 (stereo not drawn) [Compound 7-15, 5-(2-acryloyl-1,2,3,4-tetrahydroisoquinolin-5-yl)-6-fluoro-1,2,4,4′,5′,9-hexahydro-3′H-spiro[carbazole-3,2′-furan]-8-carboxamide]
< 10 | – | 10 to 100 | C=CC(=O)N1CCc2c(cccc2-c2c(F)cc(C(N)=O)c3[nH]c4c(c23)CC2(CCCO2)CC4)C1 (stereo not drawn) [Compound 7-16, 5-(2-acryloyl-1,2,3,4-tetrahydroisoquinolin-5-yl)-6-fluoro-1,2,4,4′,5′,9-hexahydro-3′H-spiro[carbazole-3,2′-furan]-8-carboxamide]

Further lines, the molecule ahead of its results:

SMILES | IC50 [1] [nM] | IC50 ([2]; Homo sapiens, Ramos) [nM] | IC50 [2] [nM]
C=CC(=O)N1CCC=C(c2ncc(C(N)=O)c3[nH]c4c(c23)CCCC4)C1 [Compound 3-2, 1-(1-acryloyl-1,2,5,6-tetrahydropyridin-3-yl)-6,7,8,9-tetrahydro-5H-pyrido[4,3-b]indole-4-carboxamide] | < 10 | < 10 | –
C=CC(=O)N1CCCC(c2ncc(C(N)=O)c3[nH]c4c(c23)CCCC4)C1 (stereo not drawn) [Compound 3-3, 1-(1-acryloylpiperidin-3-yl)-6,7,8,9-tetrahydro-5H-pyrido[4,3-b]indole-4-carboxamide] | < 10 | < 10 | –
C=CC(=O)N[C@H]1CCCN(c2ncc(C(N)=O)c3[nH]c4c(c23)CCCC4)C1 [Compound 3-4, (S)-1-(3-acrylamidopiperidin-1-yl)-6,7,8,9-tetrahydro-5H-pyrido[4,3-b]indole-4-carboxamide] | ≥ 100 | ≥ 100 | –
CC#CC(=O)N[C@H]1CCCN(c2c(F)cc(C(N)=O)c3[nH]c4c(c23)CCCCC4)C1 [Compound 4-1, (S)-1-(3-(but-2-ynamido)piperidin-1-yl)-2-fluoro-5,6,7,8,9,10-hexahydrocyclohepta[b]indole-4-carboxamide] | 10 to 100 | 10 to 100 | –
C=CC(=O)N1CC[C@@H]2CCN(c3c(F)cc(C(N)=O)c4[nH]c5c(c34)CCCCC5)C[C@@H]21 [Compound 4-2, 1-((3aS,7aR)-1-acryloyloctahydro-6H-pyrrolo[2,3-c]pyridin-6-yl)-2-fluoro-5,6,7,8,9,10-hexahydrocyclohepta[b]indole-4-carboxamide] | ≥ 100 | ≥ 100 | –
CC#CC(=O)N[C@H]1C[C@H](O)CN(c2c(F)cc(C(N)=O)c3[nH]c4c(c23)CCCCC4)C1 [Compound 4-3, 1-((3S,5S)-3-(but-2-ynamido)-5-hydroxypiperidin-1-yl)-2-fluoro-5,6,7,8,9,10-hexahydrocyclohepta[b]indole-4-carboxamide] | 10 to 100 | 10 to 100 | –
CC#CC(=O)N[C@H]1C[C@@H](O)CN(c2c(F)cc(C(N)=O)c3[nH]c4c(c23)CCCCC4)C1 [Compound 4-4, 1-((3S,5R)-3-(but-2-ynamido)-5-hydroxypiperidin-1-yl)-2-fluoro-5,6,7,8,9,10-hexahydrocyclohepta[b]indole-4-carboxamide] | 10 to 100 | ≥ 100 | –
